Structures are written as SMILES. Converted amounts (≈) assume the structure as drawn.

Data on 102 compounds can be found in PubChem BioAssay AID1996.

For the data set the following is noted: buffer; pH 7.4; 200.0 µM.
Usually solubility (kinetic) stands for the concentration staying in solution when a stock, usually in DMSO, is diluted into the medium. On to `CCOc1ccc(C(=O)n2cc(C(=O)OC)c3ccccc32)cc1OCC`, for which the kinetic solubility worked out at 3.9 µg/mL (≈ 10.6 µM).
On to `COc1ccccc1N(CC1CO1)S(=O)(=O)c1ccc(C)cc1` (configuration not stated), for which the solubility (kinetic) is 47.5 µg/mL (≈ 142 µM).
`CCC(=O)N(CCc1ccccc1)Cc1cc2cccc(C)c2[nH]c1=O` had a kinetic solubility of 2.3 µg/mL (≈ 6.6 µM).
As to `N#CCCN(Cc1cccs1)C(=O)Nc1ccc(F)cc1`, the solubility (kinetic) was more than 45.5 µg/mL.
The value for `Cc1cc(NC(=O)c2cc([N+](=O)[O-])cc([N+](=O)[O-])c2C)no1` was 38.9 µg/mL (≈ 127 µM); that for `Oc1ccccc1-c1nc(NCc2ccccc2)c2ccccc2n1` was less than 0.2 µg/mL; that for `CC(C)C1Nc2ccc(C(=O)NC3CCCCC3)cc2NC1=O` (configuration not stated) was more than 47.3 µg/mL.
`Cc1ccc(NC(c2ccccc2)c2nc3ccccc3[nH]c2=O)cc1` (configuration not stated) displayed a kinetic solubility of 0.5 µg/mL (≈ 1.46 µM).
For the compound `CCc1ccc(N(C(C)=O)c2nc(CCl)cs2)cc1`, the solubility (kinetic) is more than 44.2 µg/mL.
Regarding `Cc1ccnc(N2CCC(C(=O)NCc3ccc(F)cc3)CC2)n1`, the solubility (kinetic) was 16.7 µg/mL (≈ 50.9 µM).
The compound `CCNC(=O)NC(=O)C(C)OC(=O)c1cccn1C` (configuration not stated) had a kinetic solubility of more than 40.1 µg/mL.
As for `CCOc1ccc(CNC2CCCCCCC2)cc1OC.Cl`, the kinetic solubility came to 37.1 µg/mL.
As for `O=C(COC(=O)c1cnccn1)Nc1cccc(F)c1`, the solubility (kinetic) was more than 41.3 µg/mL.
Compound `COc1ccc(C)cc1S(=O)(=O)NC1CCCCCC1` came in with a solubility (kinetic) of 4.8 µg/mL (≈ 16.1 µM).
Compound `O=C1NCCN1CCNS(=O)(=O)c1ccc(F)c(Cl)c1` gave a kinetic solubility of more than 48.3 µg/mL.
As for `COC(=O)[C@@H]1CC(O)CN1C(=O)C12CC3CC(CC(C3)C1)C2` (some centres not stated), the kinetic solubility is more than 46.1 µg/mL.
For the compound `O=C(/C=C1\SC(=O)NC1=O)Nc1ccc(C(=O)O)cc1`, the solubility (kinetic) is more than 43.8 µg/mL.
To `Cc1oc(S(=O)(=O)N(C)C)cc1C(=O)Nc1ccc(F)cc1` belongs 2.3 µg/mL (≈ 7.05 µM); to `Cc1cc(C(=O)COc2cc(F)ccc2[N+](=O)[O-])c(C)n1CC1CCCO1` (configuration not stated), 34.4 µg/mL (≈ 91.4 µM); to `Cc1ccc(NC(=O)c2nc3nccc(C)n3n2)c(C)c1`, more than 42.2 µg/mL.
With `CC1CCC2(CC1)NC(=O)N(CC(=O)N1CC(C)CC(C)C1)C2=O` (configuration not stated), the kinetic solubility stood at 15.8 µg/mL (≈ 47.1 µM).
Compound `Cc1ccccc1C(=O)Nc1ccc2nc3n(c(=O)c2c1)CCCC3` showed a kinetic solubility of 37.5 µg/mL (≈ 112 µM).
The compound `CCCc1c(C)nc(N2CCN(c3ccccc3F)CC2)[nH]c1=O` showed a solubility (kinetic) of 0.4 µg/mL (≈ 1.21 µM).
The compound `CCNC(=O)c1ccc(N(C)S(=O)(=O)c2cccs2)cc1` came in with a solubility (kinetic) of more than 48.7 µg/mL.
Compound `COc1cccc(OC)c1C(=O)Nc1ccccc1Sc1ccccc1` displayed a kinetic solubility of 3.6 µg/mL (≈ 9.85 µM).
`FC(F)(F)c1cccc(-n2cc(-c3ccccc3)[nH]c2=S)c1`: the kinetic solubility is less than 0.3 µg/mL.
On to `COc1cccc(N2CC(C(=O)Nc3ccc(F)cc3)CC2=O)c1` (configuration not stated), for which the solubility (kinetic) is 20.3 µg/mL (≈ 61.8 µM).
Turning to `CN(CC(=O)Nc1cccc(F)c1)C(=O)CSc1ccccc1F`, the kinetic solubility stood at 46.7 µg/mL (≈ 133 µM).
In the case of `CC(C(=O)O)N1CCCCC1.Cl` (configuration not stated), the kinetic solubility stood at 24.3 µg/mL.
To `O=[N+]([O-])c1cccc(C2(O)COc3ccccc3O2)c1` (configuration not stated) belongs more than 41 µg/mL; to `Cc1ccc(CNc2ncc(-c3ccccc3)n2C)o1.O=C(O)C(=O)O`, more than 53.6 µg/mL; to `COc1ccc(C(=O)c2oc3ccc(OC)cc3c2NC(C)=O)cc1`, less than 0.7 µg/mL.
`CC(=O)c1ccc(N2CCN(c3ncccn3)CC2)c([N+](=O)[O-])c1` showed a solubility (kinetic) of 39.2 µg/mL (≈ 120 µM).
On to `Cn1c(SCC(=O)NC2CCS(=O)(=O)C2)nc2ccccc21` (configuration not stated), for which the solubility (kinetic) was more than 50.9 µg/mL.
Take `O=C(NCCO)C(=O)Nc1cc2c3c(c1)CCC(=O)N3CCC2`: the solubility (kinetic) is more than 47.6 µg/mL.
Compound `CC(C)c1ccc(NC(=S)NCc2ccc3c(c2)OCO3)cc1` gave a kinetic solubility of 4.9 µg/mL (≈ 14.9 µM).
Take `O=C(OCc1cccc(F)c1)c1ccc2c(=O)n3c(nc2c1)CCC3`: the kinetic solubility was 18.5 µg/mL (≈ 54.7 µM).
Turning to `S=C(NCCCN1CCOCC1)N1CCOCC1`, the solubility (kinetic) was more than 41 µg/mL.
To `O=C1OCCN/C1=C\C(=O)c1ccc(Cl)cc1` belongs more than 37.8 µg/mL; to `S=C(NCCc1ccccn1)Nc1ccccc1`, 32.1 µg/mL (≈ 125 µM); to `C=CCn1c(O)c(C(C)=NC(C)c2ccccc2)c(=O)[nH]c1=O` (configuration not stated), more than 47 µg/mL.
For `O=C(COc1ccccc1Cl)NCCNC(=O)c1ccccn1`, the solubility (kinetic) was more than 50.1 µg/mL.
As for `O=C1CC2c3ccccc3C1C1C(=O)N(Cc3ccccc3)C(=O)C21` (configuration not stated), the kinetic solubility is more than 49.7 µg/mL.
Regarding `O=C(Cc1c[nH]c2ccccc12)N1CCN(c2ccccc2)CC1`, the solubility (kinetic) came to 3.9 µg/mL (≈ 12.2 µM).
Take `COC(=O)c1cc(-c2cccc(OC)c2)c2c(=O)[nH]c(=O)n(C)c2n1`: the kinetic solubility was found to be 3.4 µg/mL (≈ 9.96 µM).
For the compound `COc1ccc(C(CNC(=O)c2ccc(S(=O)(=O)N3CC(C)CC(C)C3)cc2)N(C)C)cc1` (configuration not stated), the solubility (kinetic) is more than 71 µg/mL.
Turning to `Cc1noc(C)c1CC(=O)Nc1ccc2c(c1)OCO2`, the solubility (kinetic) was more than 41.1 µg/mL.
For `CCOc1ccc(NC(=O)CCC(=O)c2ccc(OC)cc2)cc1`, the kinetic solubility was 3 µg/mL (≈ 9.16 µM).
As to `O=S(=O)(c1ccc2ccccc2c1)N1CCc2ccccc21`, the solubility (kinetic) is less than 0.7 µg/mL.
To `Cc1cc(/C=C2/NC(=O)NC2=O)c(C)n1-c1ccncc1` belongs more than 42.3 µg/mL.
On to `COc1ccccc1Nc1ncnc2c1c(C)c(C)n2CCO`, for which the solubility (kinetic) came out at 15.4 µg/mL (≈ 49.3 µM).
`O=C1c2ccccc2-c2nc3ccccc3cc21` had a solubility (kinetic) of less than 0.5 µg/mL.
To `COc1ccc(CN(C)C(=O)c2sccc2-c2ccccc2)c(OC)c1` belongs 12 µg/mL (≈ 32.7 µM); to `S=C1SCN(Cc2cccnc2)CN1Cc1cccnc1`, more than 47.5 µg/mL.
To `CC1CN(C(=O)COC(=O)[C@@H](NC(=O)c2ccccc2Cl)C(C)C)CC(C)O1` (some centres not stated) belongs 58.5 µg/mL (≈ 142 µM).
For `O=C1Nc2ccccc2SC1c1ccccc1` (configuration not stated), the solubility (kinetic) was found to be 1.7 µg/mL (≈ 7.04 µM).
As to `CCCN1C(=O)/C(=C/c2nc3ccccc3c(=O)[nH]2)c2cc(C)ccc21`, the solubility (kinetic) was less than 0.2 µg/mL.
To `O=C(COC(=O)CCSc1ccccc1)NCc1ccccc1` belongs more than 49.4 µg/mL.
As for `CCC(C)NS(=O)(=O)c1cc2c3c(c1)CCC(=O)N3CCC2` (configuration not stated), the kinetic solubility was more than 48.4 µg/mL.
The value for `CCOc1cc(/C=C2\NC(=O)NC2=O)cc([N+](=O)[O-])c1O` was more than 44 µg/mL.
In the case of `COc1cccc(-c2csc(NC(=O)Nc3ccccc3)n2)c1`, the solubility (kinetic) is less than 0.2 µg/mL.
To `COc1ccc(C)c2sc(=NC(=O)c3cccc(N4C(=O)CCC4=O)c3)n(C)c12` belongs less than 0.3 µg/mL; to `O=C(c1ccc(S(=O)(=O)Nc2ccccc2Cl)cc1)N1CCCC1`, more than 54.7 µg/mL.
For `CCN(CC)CC#CCC(O)(c1ccccc1)c1ccccc1`, the kinetic solubility was more than 46.1 µg/mL.
The compound `O=C(NC1CCCCCCC1)c1ccc(F)cc1` returned a solubility (kinetic) of 25.8 µg/mL (≈ 103 µM).
On to `COc1nc(NCCO)nc(Nc2cc(Cl)ccc2OC)n1`, for which the kinetic solubility turned out to be 2.5 µg/mL (≈ 7.67 µM).
As to `O=S(=O)(c1ccc(Cl)cc1)N1CCNCC1`, the kinetic solubility was more than 39.1 µg/mL.
`Cc1ccc(NC(=O)CCOc2ccccc2C)cc1F` yielded a kinetic solubility of 2.5 µg/mL (≈ 8.7 µM).
The value for `Brc1ccc(OCc2cn3ccccc3n2)cc1` was 5.3 µg/mL (≈ 17.5 µM); that for `CCOC(=O)C1CCCN(C(=S)Nc2ccc(S(=O)(=O)N3CCOCC3)cc2)C1` (configuration not stated) was more than 66.2 µg/mL.
The value for `Cc1cc2cc(C#N)c(SCC(=O)Nc3nonc3C)nc2cc1C` was 0.3 µg/mL (≈ 0.849 µM); that for `Cc1cc(C)cc(NC(=S)N2CCN(c3ccccn3)CC2)c1` was 9.2 µg/mL (≈ 28.2 µM); that for `CCOC(=O)Cc1ccc(NC(=O)c2cccc([N+](=O)[O-])c2)cc1` was 2.6 µg/mL (≈ 7.92 µM).
The value for `S=C(NCc1ccco1)N1CCN(c2ccccc2Cl)CC1` was 19.5 µg/mL (≈ 58.1 µM); that for `COc1ccc(OC)c(C(O)C2CCCCN2)c1.Cl` (configuration not stated) was more than 43.2 µg/mL; that for `Cc1cc(/C(N)=N/OC(=O)Nc2ccccc2)no1` was 15.7 µg/mL (≈ 60.3 µM).
Take `O=C(Nc1cccnc1)c1cc(Cl)ccc1Cl`: the kinetic solubility is more than 40.1 µg/mL.
The compound `COc1cc(OC)cc(C(=O)OCC(=O)Nc2ccc3[nH]c(=O)[nH]c3c2)c1` returned a solubility (kinetic) of 4.4 µg/mL (≈ 11.8 µM).
The value for `CN(Cc1ccc2c(c1)OCCO2)C(=O)CSc1ncnc2sccc12` was 41.8 µg/mL (≈ 108 µM); that for `CC(C)CNC1CCS(=O)(=O)C1.Cl` (configuration not stated) was more than 34.2 µg/mL; that for `O=C1COc2ccc(C(=O)COC(=O)c3ccccn3)cc2N1` was 16.9 µg/mL (≈ 54.1 µM).
Regarding `CCn1cc(CCC(=O)O)c(C)n1`, the solubility (kinetic) is more than 27.3 µg/mL.
With `CC(=C1C(=O)c2ccccc2C1=O)N1CCN(c2ccc(F)cc2)CC1`, the kinetic solubility was more than 52.6 µg/mL.
To `Cc1ccc(C)c(C(C)NC(=O)C2CC=CCC2C(=O)O)c1` (configuration not stated) belongs more than 45.2 µg/mL.
As for `COc1ccc(C(=O)NCc2ccc(N3CCN(C)CC3)cc2)cc1`, the solubility (kinetic) is more than 50.9 µg/mL.
To `COCCn1c(=S)[nH]c2sc3c(c2c1=O)CCC(C)C3` (configuration not stated) belongs 40.4 µg/mL (≈ 130 µM).
Compound `COc1ccc(C2c3c(nc[nH]c3=O)Oc3nc[nH]c(=O)c32)cc1` yielded a solubility (kinetic) of more than 48.6 µg/mL.
`Cc1cccc(-c2nc3sc(C)cc3c(=O)o2)c1` yielded a solubility (kinetic) of less than 0.6 µg/mL.
In turn, `O=C(NC(N1CCOCC1)C(Cl)(Cl)Cl)c1ccc(F)cc1` (configuration not stated) returned a solubility (kinetic) of 41.1 µg/mL (≈ 116 µM).
On to `Cc1ccc(OCC(O)CNC2CCCC2)cc1C.Cl` (configuration not stated), for which the kinetic solubility was more than 45 µg/mL.
`Cc1cccc(N2C(=O)Cc3ccccc3C2=O)c1`: the solubility (kinetic) came out at 30.7 µg/mL (≈ 122 µM).
Turning to `CCCN(CCC)S(=O)(=O)c1ccc(C(=O)NCc2ccco2)cc1`, the kinetic solubility came out at 12.7 µg/mL (≈ 34.8 µM).
To `O=C(O)CCCCCNC(=O)/C(=C\c1ccco1)NC(=O)c1ccco1` belongs 44.3 µg/mL (≈ 123 µM).
As to `COC(=O)CN(c1nc(C)c(Br)c(OC)n1)S(=O)(=O)c1ccccc1`, the solubility (kinetic) came out at 14.4 µg/mL (≈ 33.5 µM).
The compound `O=C(CS(=O)(=O)c1ccccc1)Nc1nccs1` gave a kinetic solubility of more than 42.3 µg/mL.
Take `Cc1cccc(OCc2nc(-c3ccc(Br)o3)no2)c1`: the kinetic solubility was determined as 1 µg/mL (≈ 2.98 µM).
The value for `CN(C)c1ccc(C2N(C)C(=O)c3ccccc3N2C)cc1` (configuration not stated) was 40.9 µg/mL (≈ 138 µM).
Consider `Cc1ccc(-n2c(C)c(C)c3c(NCCO)ncnc32)cc1`, for which the kinetic solubility was more than 44.5 µg/mL.
The compound `O=C1/C(=C/c2ccncc2)CCc2ccccc21` displayed a kinetic solubility of 34.2 µg/mL (≈ 145 µM).
The compound `O=C(CN1C(=O)c2ccccc2S1(=O)=O)Nc1cccc(S(=O)(=O)N2CCOCC2)c1` had a solubility (kinetic) of more than 69.8 µg/mL.
In the case of `CC(=O)Nc1ccc(-n2c(C)ccc2-c2ccccc2)cc1`, the kinetic solubility is 4.4 µg/mL (≈ 15.2 µM).
In turn, `Cc1nc(N2CCC(C)CC2)c(C#N)c(C)c1[N+](=O)[O-]` showed a kinetic solubility of 0.9 µg/mL (≈ 3.28 µM).
